Test results published in ChEMBL document CHEMBL3400015, “Tertiary amides of Salinomycin: A new group of antibacterial agents against Bacillus anthracis and methicillin-resistant Staphylococcus epidermidis” (Bioorg Med Chem Lett, 2015).
In brackets after ≈: the same amount, converted by molar mass.

Experiments:
Staphylococcus aureus [1] = experiment: Antimicrobial activity against Staphylococcus aureus NCTC 4163 after 18 hrs by twofold serial broth dilution method; assay type: functional; settings: NCTC 4163, 18 h
Staphylococcus aureus [2] = experiment: Antimicrobial activity against Staphylococcus aureus ATCC 25923 after 18 hrs by twofold serial broth dilution method; assay type: functional; settings: ATCC 25923, 18 h
Escherichia coli [3] = experiment: Antimicrobial activity against Escherichia coli ATCC 10538 after 18 hrs by twofold serial broth dilution method; assay type: functional; settings: ATCC 10538, 18 h
Staphylococcus aureus [4] = experiment: Bactericidal activity against Staphylococcus aureus NCTC 4163 after 24 hrs; assay type: functional; settings: NCTC 4163, 24 h, read-out: MBC99.9
Staphylococcus aureus [5] = experiment: Bactericidal activity against Staphylococcus aureus ATCC 6538 after 24 hrs; assay type: functional; settings: ATCC 6538, 24 h, read-out: MBC99.9
Escherichia coli [6] = experiment: Bactericidal activity against Escherichia coli ATCC 10538 after 24 hrs; assay type: functional; settings: ATCC 10538, 24 h, read-out: MBC99.9
Escherichia coli [7] = experiment: Bactericidal activity against Escherichia coli ATCC 25922 after 24 hrs; assay type: functional; settings: ATCC 25922, 24 h, read-out: MBC99.9
Pseudomonas aeruginosa = experiment: Bactericidal activity against Pseudomonas aeruginosa ATCC 15442 after 24 hrs; assay type: functional; settings: ATCC 15442, 24 h, read-out: MBC99.9
[8] = tested on: Staphylococcus epidermidis; experiment: Antimicrobial activity against methicillin-resistant Staphylococcus epidermidis isolate 469/11 after 18 hrs by twofold serial broth dilution method; assay type: functional; settings: isolate 469/11, 18 h
[9] = tested on: Staphylococcus epidermidis; experiment: Bactericidal activity against methicillin-resistant Staphylococcus epidermidis isolate 405/10 after 24 hrs; assay type: functional; settings: isolate 405/10, 24 h, read-out: MBC99.9
[10] = tested on: Staphylococcus epidermidis; experiment: Bactericidal activity against methicillin-resistant Staphylococcus epidermidis isolate 409/10 after 24 hrs; assay type: functional; settings: isolate 409/10, 24 h, read-out: MBC99.9
[11] = tested on: Staphylococcus epidermidis; experiment: Bactericidal activity against methicillin-resistant Staphylococcus epidermidis isolate 422/10 after 24 hrs; assay type: functional; settings: isolate 422/10, 24 h, read-out: MBC99.9
[12] = tested on: Staphylococcus epidermidis; experiment: Bactericidal activity against methicillin-resistant Staphylococcus epidermidis isolate 457/11 after 24 hrs; assay type: functional; settings: isolate 457/11, 24 h, read-out: MBC99.9
[13] = tested on: Staphylococcus epidermidis; experiment: Bactericidal activity against methicillin-resistant Staphylococcus epidermidis isolate 461/11 after 24 hrs; assay type: functional; settings: isolate 461/11, 24 h, read-out: MBC99.9
[14] = tested on: Staphylococcus epidermidis; experiment: Bactericidal activity against methicillin-resistant Staphylococcus epidermidis isolate 469/11 after 24 hrs; assay type: functional; settings: isolate 469/11, 24 h, read-out: MBC99.9
Bacillus subtilis = experiment: Genotoxicity in rec-positive Bacillus subtilis H17 at 2 ug/9 mm disc after 24 hrs by disc diffusion method; assay type: toxicity, organism-based
[15] = tested on: Staphylococcus epidermidis; experiment: Ratio of ciprofloxacin MIC to compound MIC for methicillin-resistant Staphylococcus epidermidis clinical isolate after 18 hrs by twofold serial broth dilution method; assay type: functional

Structure (SMILES)	MIC (Staphylococcus aureus [1]) [µg/mL]	MIC (Staphylococcus aureus [2]) [µg/mL]	MIC (Escherichia coli [3]) [µg/mL]	MBC (Staphylococcus aureus [4]) [µg/mL]	MBC (Staphylococcus aureus [5]) [µg/mL]	MBC (Escherichia coli [6]) [µg/mL]	MBC (Escherichia coli [7]) [µg/mL]	MBC (Pseudomonas aeruginosa) [µg/mL]	MIC [8] [µg/mL]	MBC [9] [µg/mL]	MBC [10] [µg/mL]	MBC [11] [µg/mL]	MBC [12] [µg/mL]	MBC [13] [µg/mL]	MBC [14] [µg/mL]	diameter of the inhibition zone (DIZ) (Bacillus subtilis) [mm]	Ratio [15]
CCCCCCCCN(CCCCCCCC)C(=O)[C@H](CC)[C@H]1CC[C@H](C)[C@H]([C@@H](C)[C@H](O)[C@H](C)C(=O)[C@H](CC)[C@H]2O[C@]3(C=C[C@@H](O)[C@]4(CC[C@@](C)([C@H]5CC[C@](O)(CC)[C@H](C)O5)O4)O3)[C@H](C)C[C@@H]2C)O1	256 (≈ 263 µM)	128 (≈ 131 µM)	> 256	> 256	> 256	> 256	> 256	> 256	256 (≈ 263 µM)	> 256	> 256	> 256	> 256	> 256	> 256		
CC[C@@H](C(=O)[C@@H](C)[C@@H](O)[C@H](C)[C@@H]1O[C@@H]([C@@H](CC)C(=O)N(CCOC)CCOC)CC[C@@H]1C)[C@H]1O[C@]2(C=C[C@@H](O)[C@]3(CC[C@@](C)([C@H]4CC[C@](O)(CC)[C@H](C)O4)O3)O2)[C@H](C)C[C@@H]1C	64 (≈ 73.9 µM)	64 (≈ 73.9 µM)	> 256	> 256	> 256	> 256	> 256	> 256	128 (≈ 148 µM)	> 256	> 256	> 256	> 256	> 256	> 256	13	
CC[C@@H](C(=O)[C@@H](C)[C@@H](O)[C@H](C)[C@@H]1O[C@@H]([C@@H](CC)C(=O)N2CCOCC2)CC[C@@H]1C)[C@H]1O[C@]2(C=C[C@@H](O)[C@]3(CC[C@@](C)([C@H]4CC[C@](O)(CC)[C@H](C)O4)O3)O2)[C@H](C)C[C@@H]1C	256 (≈ 312 µM)	128 (≈ 156 µM)	256 (≈ 312 µM)	> 256	> 256	> 256	> 256	> 256	> 256	> 256	> 256	> 256	> 256	> 256	> 256		
CC[C@@H](C(=O)[C@@H](C)[C@@H](O)[C@H](C)[C@@H]1O[C@@H]([C@@H](CC)C(=O)N(CC)CC)CC[C@@H]1C)[C@H]1O[C@]2(C=C[C@@H](O)[C@]3(CC[C@@](C)([C@H]4CC[C@](O)(CC)[C@H](C)O4)O3)O2)[C@H](C)C[C@@H]1C	4 (≈ 4.96 µM)	2 (≈ 2.48 µM)	> 256	64 (≈ 79.4 µM)	64 (≈ 79.4 µM)	> 256	> 256	> 256	8 (≈ 9.92 µM)	256 (≈ 318 µM)	256 (≈ 318 µM)	256 (≈ 318 µM)	128 (≈ 159 µM)	128 (≈ 159 µM)	256 (≈ 318 µM)	26	40
CC[C@@H](C(=O)[C@@H](C)[C@@H](O)[C@H](C)[C@@H]1O[C@@H]([C@@H](CC)C(=O)N2CCNCC2)CC[C@@H]1C)[C@H]1O[C@]2(C=C[C@@H](O)[C@]3(CC[C@@](C)([C@H]4CC[C@](O)(CC)[C@H](C)O4)O3)O2)[C@H](C)C[C@@H]1C	128 (≈ 156 µM)	128 (≈ 156 µM)	> 256	> 256	> 256	> 256	> 256	> 256	128 (≈ 156 µM)	> 256	> 256	> 256	> 256	> 256	> 256	14	
